Results published in patent publication US10759790B2, “Heterocyclic constrained tricyclic sulfonamides as anti-cancer agents” (ICAHN SCHOOL OF MEDICINE AT MOUNT SINAI, priority 2015, dated 2020).
Each block holds one compound with its values, some of them ahead of it.

Assays:
H1650 lung cancer cells = assay: Cell viability assay (MTT, IC50 determination); assay type: cell-based; details: H1650 lung cancer cells, MTT; for IC50: Homo sapiens, NCI-H1650, 48 hours after drug treatment, read-out: H1650 cell viability IC50
Experimental: Cell viability assays were performed according to Denizot, F. and R. Lang, Journal of Immunological Methods, 1986. 89(22): p. 271-277. H1650 lung cancer cells were plated at 150,000 cells per well in a 12 well plate. Twenty-four hours after plating, cells were treated as described with increasing concentrations of drug and control. Forty-eight hours after drug treatment, cells were treated with 100 μL of 3-(4,5-Dimethylthiazol-2-yl)-2,5-diphenyltetrazolium bromide (MTT) and incubated for 2 hours at 37 C. The MTT solution was subsequently replaced with 300 μL of n-propyl alcohol and re-aliquoted to a 96 well plate. Spectrophotometric analysis of each solution was performed using a 96 well plate reader at 600 nm in triplicate.

H358 cell line = assay: In vivo H358 xenograft model, tumor volume (Example 17b); set-up: species or system BALB/c nu/nu mice; details: 5 mg/kg BID oral gavage, treatment day 32
Experimental: (§1) To evaluate the efficacy of Example 17b in vivo, xenograft model was utilized using the H358 cell line. H358 cells (1×10^7) were injected into the right flank of 6- to 8-week-old male BALB/c nu/nu mice. Mice were randomized to treatment groups based on initial tumor volume. Tumor volume was assessed twice a week by caliper measurement, until volumes reached an average of 200 mm^3. Mice were treated by oral gavage with vehicle control or Example 17b (5 mg/kg) BID. The treatment schedules were initiated, and the mouse tumors were measured every other day for the duration of the study. Mice body weights were recorded weekly and percentage of mice body weights during treatment was calculated as: weight at each time point/initial weight×100.

[1] = In vivo H358 xenograft model: body weights and signs of toxicity (Example 17b); set-up: species or system BALB/c nu/nu mice; details: 5 mg/kg BID oral gavage
Experimental: as §1

[2] = test system: lung cancer cell line H358; assay: In vivo cancer model: subcutaneous H358 xenograft, tumor volume (Example 2a); set-up: species or system BALB/c nu/nu mice; details: 5 mg/kg BID oral gavage
Experimental: (§2) To assess the in vivo effects of the compounds, subcutaneous xenograft of lung cancer cell line H358 was generated. Cells (5×10^6) were injected into the right flank of 6- to 8-week-old male BALB/c nu/nu mice (Charles River, Wilmington, Mass.). Tumor volume was assessed twice a week by caliper measurement. Mice were randomized to treatment groups based on initial tumor volume average of 200 mm^3 per group. Mice were dosed by oral gavage with 5 mg/kg Example 2a BID. Mouse tumors were measured twice a week for the duration of the study. Mouse body weights were recorded weekly and percentage of mice body weights during treatment was calculated as: weight at each time point/initial weight×100.

[3] = In vivo cancer model: body weights and signs of toxicity (Example 2a); set-up: species or system BALB/c nu/nu mice; details: 5 mg/kg BID oral gavage
Experimental: as §2

Structure (SMILES): O=S(=O)(N[C@H]1CNC[C@@H](N2c3ccccc3Oc3ccccc32)[C@@H]1O)c1ccc(OC(F)(F)F)cc1 [Example 17b, N-((3S,4S,5R)-4-hydroxy-5-(10H-phenoxazin-10-yl)piperidin-3-yl)-4-(trifluoromethoxy)benzenesulfonamide]
IC50 (H1650 lung cancer cells): 10 µM | % T/C (mean tumor volume) (H358 cell line): 55% | % T/C (median tumor volume) (H358 cell line): 54% | Inhibition of tumor growth versus vehicle control (H358 cell line): statistically significant inhibition of tumor (T) growth versus vehicle control (C) | Mean Tumor Volume (T) (H358 cell line): 562 mm^3 | Median Tumor Volume (T) (H358 cell line): 520 mm^3 | Signs of toxicity (mucous diarrhea, abdominal stiffness and weight loss) [1]: no adverse signs were observed | Toxicity as judged from animal body weights versus vehicle control [1]: No statistically significant toxicity was observed | % T/C (mean body weight) ([1]; H358 xenograft mice): 100.5% | % T/C (median body weight) ([1]; H358 xenograft mice): 99.4% | Mean body weight ([1]; H358 xenograft mice): 34.41 g | Median body weight ([1]; H358 xenograft mice): 34.1 g

Structure (SMILES): O=S(=O)(N[C@@H]1COC[C@H](N2c3ccccc3Oc3ccccc32)[C@H]1O)c1ccc(OC(F)(F)F)cc1 [Example 2a, N-((3R,4R,5S)-4-hydroxy-5-(10H-phenoxazin-10-yl)tetrahydro-2H-pyran-3-yl)-4-(trifluoromethoxy)benzenesulfonamide]
IC50 (H1650 lung cancer cells): 15 µM | % T/C (mean tumor volume) ([2]; treatment day 17): 28.82% | % T/C (median tumor volume) ([2]; treatment day 17): 25.82% | Inhibition of tumor growth versus vehicle control ([2]; treatment day 17): statistically significant inhibition of tumor (T) growth versus vehicle control (C) | Mean Tumor Volume (T) ([2]; treatment day 17, in mm³): 208.64 | Median Tumor Volume (T) ([2]; treatment day 17, in mm³): 191.78 | Signs of toxicity (mucous diarrhea, abdominal stiffness and weight loss) [3]: no adverse signs were observed | Toxicity as judged from animal body weights versus vehicle control [3]: No statistically significant toxicity was observed | % T/C (mean body weight) ([3]; H358 xenograft mice): 96.36% | % T/C (median body weight) ([3]; H358 xenograft mice): 96.92% | Mean body weight ([3]; H358 xenograft mice): 30.21 g | Median body weight ([3]; H358 xenograft mice): 29.95 g

Structure (SMILES): O=S(=O)(N[C@H]1COC[C@@H](N2c3ccccc3Oc3ccccc32)[C@@H]1O)c1ccc(OC(F)(F)F)cc1 [Example 2b, N-((3S,4S,5R)-4-hydroxy-5-(10H-phenoxazin-10-yl)tetrahydro-2H-pyran-3-yl)-4-(trifluoromethoxy)benzenesulfonamide]
IC50 (H1650 lung cancer cells): 15 µM

Structure (SMILES): O=S(=O)(N[C@@H]1COCC(n2c3ccccc3c3ccccc32)[C@H]1O)c1ccc(OC(F)(F)F)cc1 (mixture of isomers) [Example 1, Rac-N-(3R,4R,5S)-5-(9H-carbazol-9-yl)-4-hydroxytetrahydro-2H-pyran-3-yl)-4-(trifluoromethoxy)benzenesulfonamide]
IC50 (H1650 lung cancer cells): 15 µM

Structure (SMILES): O=S(=O)(N[C@@H]1COC[C@H](N2c3ccccc3Oc3ccc(C(F)(F)F)cc32)[C@H]1O)c1ccc(OC(F)(F)F)cc1 [Example 8, N-((3R,4R,5S)-4-hydroxy-5-(2-(trifluoromethyl)-10H-phenoxazin-10-yl)tetrahydro-2H-pyran-3-yl)-4-(trifluoromethoxy)benzenesulfonamide]
IC50 (H1650 lung cancer cells): 10 µM

Structure (SMILES): O=S(=O)(N[C@@H]1COC[C@H](N2c3ccccc3Oc3ccccc32)[C@H]1O)c1ccccc1 [Example 60, N-((3R,4R,5S)-4-hydroxy-5-(10H-phenoxazin-10-yl)tetrahydro-2H-pyran-3-yl)benzenesulfonamide]
H1650 cell viability, % at 40 uM (H1650 lung cancer cells; at 40 uM, 48 hours): 37% at 40 uM

Second part, the compound after the results:

IC50 (H1650 lung cancer cells): 15 µM
Structure (SMILES): O=S(=O)(N[C@@H]1CNC[C@H](N2c3ccccc3Oc3ccccc32)[C@H]1O)c1ccc(OC(F)(F)F)cc1 [Example 17a, N-((3R,4R,5S)-4-hydroxy-5-(10H-phenoxazin-10-yl)piperidin-3-yl)-4-(trifluoromethoxy)benzenesulfonamide]

IC50 (H1650 lung cancer cells): 10 µM
Structure (SMILES): O=S(=O)(N[C@@H]1CNC[C@H](n2c3ccccc3c3ccccc32)[C@H]1O)c1ccc(OC(F)(F)F)cc1 [Example 41a, N-((3R,4R,5S)-5-(9H-carbazol-9-yl)-4-hydroxypiperidin-3-yl)-4-(trifluoromethoxy)benzenesulfonamide]

IC50 (H1650 lung cancer cells): 5 µM
Structure (SMILES): O=S(=O)(N[C@@H]1CNC[C@H](N2c3ccc(C(F)(F)F)cc3Oc3cc(C(F)(F)F)ccc32)[C@H]1O)c1ccc(OC(F)(F)F)cc1 [Example 58, N-((3R,4R,5S)-5-(3,7-bis(trifluoromethyl)-10H-phenoxazin-10-yl)-4-hydroxypiperidin-3-yl)-4-(trifluoromethoxy)benzenesulfonamide]

IC50 (H1650 lung cancer cells): 5 µM
Structure (SMILES): O=S(=O)(N[C@@H]1COC[C@H](N2c3ccc(C(F)(F)F)cc3Oc3cc(C(F)(F)F)ccc32)[C@H]1O)c1ccc(OC(F)(F)F)cc1 [Example 14, N-((3R,4R,5S)-5-(3,7-bis(trifluoromethyl)-10H-phenoxazin-10-yl)-4-hydroxytetrahydro-2H-pyran-3-yl)-4-(trifluoromethoxy)benzenesulfonamide]
